SMILES strings stand for the structures.

Here are results for three compounds from patent US4436742A, “4-Hydroxy-2,1,3-benzthiadiazole compounds and β-adrenergic method of use therefor” (Boehringer Mannheim GmbH, priority 1974, dated 1984).

For series [1], the system named is cardiac β-receptor. Description: inhibition of isoprenalin tachycardia in wake rabbits (cardiac β-receptor blocking activity). The following applies: for Heartbeat Frequency: isoprenalin 1 μg/kg i.v. 30 minutes after infusion, x ± sx; for DE250: i.v., interpolated dosage which limits the frequence increase to 250 beats/min. In kind it is in vivo, rabbit. As to the method: The following tests were carried out to determine the cardiac β-receptor blocking activity of certain test compounds by determining the inhibition of the heart beat frequency increase induced by intravenous administration of isoprenalin.
The β-receptor blocking activity of the test compounds was tested on wake rabbits weighing between 2 to 3.5 kg. and kept in wooden cages. EKG-electrodes were inserted into the hind quarters of the rabbits s.c. (II. lead) and the heart frequency was measured based on 20 heart beats. The test compounds were then infused through a small tube to the ear vein of the rabbits over a period of 15 minutes. 30 minutes after the infusion isoprenalin (3,4-dihydro-α-[(isopropylamino)-methyl]-benzylalcohol) was injected intravenously at 1 μg/kg.

Series [2] can be described thus: acute toxicity in mice, intravenous. The following applies: in vivo, mouse, i.v., dosage at which 50% of the mice die. As to the method:
1. The acute toxicity in mice when administered intravenouly was measured and the LD50 (=dosage at which 50% of the mice die) determined.

A word on the LD50: it is the dose at which mortality reaches 50%. Read a high LD50 as lower toxicity. On to `CC(C)NCC(O)COc1ccc2nsnc2c1` (centres unmarked) [Compound A, 5-(3-Isopropylamino-2-hydroxypropoxy)-2,1,3-benzo-thiadiazole, reference compound], for which the “Heartbeat Frequency” value in series [1] (1.0 mg/kg i.v.) turned out to be 290 ± 8 beats/min; in series [1] (5.0 mg/kg i.v.), 246 ± 7 beats/min. This compound also came in with a DE250 in series [1] of 5 mg/kg. This compound came in with a median lethal dose (LD50) in series [2] of 100 mg/kg.
Consider `CC(C)(C)NCC(O)COc1cccc2nsnc12` (centres unmarked) [Compound II], for which the “Heartbeat Frequency” value is 308 ± 10 beats/min in series [1] (0.1 mg/kg i.v.), 245 ± 6 beats/min in series [1] (0.5 mg/kg i.v.), 215 ± 10 beats/min in series [1] (1.0 mg/kg i.v.) and 220 ± 7 beats/min in series [1] (5.0 mg/kg i.v.). The DE250 in series [1] worked out at 0.5 mg/kg. The same compound gave an LD50 in series [2] of 45 mg/kg.
With `CC(C)NCC(O)COc1cccc2nsnc12` (centres unmarked) [Compound I, 4-(3-Isopropylamino-2-hydroxy-propyloxy)-2,1,3-benzthiadiazole], the “Heartbeat Frequency” value in series [1] (0.01 mg/kg i.v.) is reported as 324 ± 9 beats/min; in series [1] (0.1 mg/kg i.v.) it was 297 ± 10 beats/min; in series [1] (0.3 mg/kg i.v.), 266 ± 14 beats/min; in series [1] (1.0 mg/kg i.v.), 220 ± 14 beats/min; in series [1] (5.0 mg/kg i.v.), 210 ± 5 beats/min. The same compound showed a DE250 in series [1] of 0.7 mg/kg. The compound also had a 50% lethal dose (LD50) in series [2] of 50 mg/kg.
